“Also recorded” adds a separate entry of the source.
Test: Frizz control test, panel ranking of tresses at 75% RH
Conditions: from panel ranking
Procedure: The formulations H to M as set out in Table 4 were prepared. Each hair conditioner formulation was prepared by combining the Part A ingredients while mixing and heating to 75-80° C., and separately combining the Part B ingredients and heating to the same temperature. The Part A and Part B ingredients were then combined while mixing at temperature and allowed to cool to 40° C. Once at 40° C., the Part C ingredients were added and the pH adjusted to about 4.5±0.5 using lactic acid.
For each formulation H to M, 7 Brazilian curly hair tresses available from International Hair Importers Inc., NYC, were cut to 1.5 cm wide and 20 cm long.
The tresses were washed with a simple cleansing shampoo (SLES/Betaine shampoo) using a 1:10 w/w shampoo to hair ratio for 1 minute. The tresses were then rinsed with warm water for 1 minute or until free of foam. 3 g of the respective formulation was then massaged into the hair tresses for 1 minute. The treated tresses were left to sit for 20 minutes and then the formulations rinsed out of the hair for 45 seconds. Once rinsed, the tresses were blown dry using a blow dryer and round brush, and then flat-ironed using a ceramic iron at 400° F. for 5 passes. […]
The panelists were asked to rank the tresses from 1 (least frizz) to 6 (most frizz). The mode and average of the panelists' rankings were calculated for each to give the overall ranking.

Isostearic Acid—DETA Tertiary Amine [Example 3a]
frizz control, conclusion in words: resisted frizz the best; also recorded: aids in frizz control

— patent US11478416B2, “Ingredients for use in personal care compositions” (Croda, Inc., priority 2016, dated 2022)
